Measured values: a melting point compilation (Tetko et al.; mined from patent text by program, amines drawn as free bases though some values may be those of a salt)

Compound	melting point
CCOC(=O)c1cnccc1NC(=O)Cc1c(F)cccc1Cl	114 to 116 °C
Cc1cc(O)nc2c1CCCC2	250 to 252 °C
COC(=S)NCc1cn(-c2ccc(-n3cccc3)cc2)nn1	150 °C
CN1C(=O)C(C(=O)Nc2ccccc2)Sc2ccccc21 (stereo not given)	124 to 126 °C
Cc1cc2cc(OCCCCBr)ccc2[nH]1	77 to 79 °C
Nc1sc2c(c1C(=O)c1ccccc1)CCN(C(=O)OCc1ccccc1)C2	138 to 140 °C
CC(C)=CCc1c(O)ccc(C(=O)C=Cc2ccc(O)cc2O)c1O	150 to 151 °C
COc1ccccc1NC(=O)Nc1nc(Oc2ccc3ccccc3c2)nc(N(CCC(=O)O)Cc2cccc(Cl)c2)n1	215 to 218 °C
COCCOc1c(S(C)(=O)=O)ccc(C(=O)O)c1C	104 to 106 °C
O=C(CCCCBr)NC(=O)C1CC1	114 to 115 °C
O=C(c1ccccc1)N1Cc2ccccc2Oc2ccc(Cl)cc21	103 to 106 °C
C#Cc1c(N)cc(-c2ccc(Cl)c(OC)c2F)nc1C(=O)OC	167 to 169 °C
CCOC(=O)COc1nc2cc(OC)cc(OC)c2cc1-c1ccc(OC)cc1	95 to 96 °C
CC(C)(C)OC(=O)N1CCC[C@@H](Nc2nccc(-c3c(-c4cccc(C(N)=O)c4)nc4sccn34)n2)C1	161 to 165 °C
Nc1cc(N2CCCC2)c2c(Cl)ccc3c2c1C(=O)N(O)C3=O	211 to 213 °C
c1cc(-c2ccc(N3CCNCC3)cc2)[nH]n1	290 °C

Compound	melting point
O=C(c1ccc(F)cc1)C1CCN(CCN2c3cccc4cccc(c34)S2(=O)=O)CC1	145 °C
C[Si](C)(C)OCCNc1ccc(NCCO[Si](C)(C)C)c2c1C(=O)c1ccccc1C2=O	123 to 126 °C
FC(F)(F)c1cccc(-c2cc(C3CCNCC3)nnc2-c2ccncc2)c1	148 to 150 °C
Cc1cc(=O)c(-c2ccc(F)cc2)c(C)o1	114 to 115 °C
CNC(=C[N+](=O)[O-])NCCCSc1nc(C)co1	92 to 93 °C
CN1CCN(C(=O)OC2c3ccccc3C(=O)N2c2ccc3c(Cl)ccnc3n2)CC1 (stereo not given)	240 °C
COc1ccc(C(=O)c2ccccc2F)c(Cl)c1	77 to 79 °C
CCc1nc2cc(C#N)c(Cl)cc2n1-c1ccc(CCNC(=O)NS(=O)(=O)c2ccc(C)cc2)cc1	219 to 224 °C
CCCCc1cn2ccccc2c1S(=O)(=O)c1ccc(OS(=O)(=O)c2ccc(C)cc2)cc1	145 °C
CCN1c2ncc(CC(F)c3ccncc3)cc2C(=O)N(C)c2ccc(Cl)nc21 (stereo not given)	180 °C
OC1CSC(Oc2ccc(-n3ccnc3)cc2)C(O)C1O (stereo not given)	180 °C
CC(C)c1cccc(N2CCN(c3cccc(C(=O)O)c3)C2=O)c1	189 to 190 °C
CNC(=O)Oc1cccc(C2CCCN2C(=O)c2ccccc2)c1 (stereo not given)	117 to 121 °C
Cc1oc(-c2ccccc2)nc1CCOc1ccc(CC2SC(=O)NC2=O)cc1 (stereo not given)	113 to 114 °C
CCCCCCCCCC(CC)C(=O)Nc1cc(C(=O)O)ccc1C (racemic)	217 to 220 °C

Next, values leading:

melting point	Compound
128 to 129 °C	COc1cc(NS(=O)(=O)c2cccs2)c2[nH]c(C(=O)NCCSC(c3ccccc3)(c3ccccc3)c3ccccc3)cc2c1
196 to 198 °C	CCc1nc2cnc3cc(C=CC(=O)N(C)C)ccc3c2n1CC(C)(C)O
139 to 140 °C	CNC(=O)NCCn1c(-c2ccc(CN3CCOCC3)c(C)c2)csc1=Nc1ccc(F)c(C)c1
215 to 216 °C	Cc1cc(CNC(=O)c2sc(N3C[C@@H](C)N(Cc4ccc(F)cc4)C3=O)nc2C)[nH]n1
209 °C	Cn1cc(-c2cc(-c3ccsc3)ccn2)n(-c2ccc(C(C)(C)C#N)cc2)c1=O
126 to 128 °C	CCCOc1ccccc1-c1ccc(C(=O)OC)c(=O)[nH]1
189 to 190 °C	CC(C)(C)C1(O)CCN(C(=O)C2c3ccccc3CCc3ccccc32)CC1
158 to 160 °C	CNC(=S)NCC1CN(c2ccc(N3CCOCC3)c(F)c2)C(=O)O1 (stereo not given)
105 °C	CC(O)(C#CCCO)c1ccc(-c2ccc(Cl)cc2)cc1 (stereo not given)
103 to 105 °C	CCOC(=O)Cc1nc(-c2cc(C(C)(C)C)c(O)c(C(C)(C)C)c2)oc1C
55 to 56 °C	COc1ccc(CSC(C)(C)C2(c3ccc(F)cc3F)CO2)cc1 (stereo not given)
167 to 168 °C	O=C1NC(=O)c2ccc(Br)cc2/C1=C/c1cc(Br)c(O)c(Br)c1
67 to 71 °C	CCCCOc1cccc(CCNC(=O)C=CC2CCCCC2)c1
217 to 220 °C	CCc1nc2c(N)nc3cc(CCCN)ccc3c2n1CC1CCOCC1
44 to 46 °C	CCOC(=O)CCC1(CCC(=O)OCC)CCC(=O)N1
118 to 120 °C	COc1cccc(NC(=O)C(C)Oc2ccc(Oc3ccc(C#N)cc3)cc2)c1 (stereo not given)
199 °C	CCCOC(=O)C1=C(N)NC(C)=C(C(=O)OC(C)C)C1c1cccc([N+](=O)[O-])c1 (stereo not given)
227 °C	Cc1ncc(Cn2c(NC3CCNCC3)nc3ccccc32)o1
148 to 149 °C	CCN(CC)C(=O)c1cc(OC)c(OC)cc1-c1c(C(=O)N(CC)CC)ccc2c1OCO2
